# Results as given in patent US4471131A, “Novel silyl esters of N-phosphonomethylglycine” (Monsanto Company, priority 1983, dated 1984).
# Assays:
# Test in all cases: post-emergence herbicidal activity, greenhouse
# Assay type in all cases: in vivo
# Quackgrass = conditions: Table II, 11.2 kg/h, formulated immediately prior to treatment
# Source text: (§1) A good grade of top soil is placed in aluminum pans having holes in the bottom and compacted to a depth of 0.95 to 1.27 cm. from the top of the pan. A predetermined number of seeds of each of several dicotyledonous and moncotyledonous annual plant species and/or vegetative propagules for the perennial plant species were placed on the soil and pressed into the soil surface. The seeds and/or vegetative propagules are covered with soil and leveled. The pans are then placed on a sand bench in the greenhouse and watered from below as needed. After the plants reach the desired age (two to three weeks), each pan, except for the control pans, is removed individually to a spraying chamber and sprayed by means of an atomizer at the rates noted. In the spray solution is an amount of an emulsifying agent mixture to give a spray solution or suspension which contains about 0.4% by weight of the emulsifier. The spray solution or suspension contains a sufficient amount of the candidate chemical in order to give application rates corresponding to those set forth in the tables. The pans were returned to the greenhouse and watered as before and the injury to the plants as compared to the control is observed at approximately two and four weeks and the results recorded. In the tables, WAT means "weeks after treatment."
# (§2) The post-emergent herbicidal activity index used in Tables II and III is as follows:
# (§3) The plant species utilized in these tests are identified by letter in accordance with the following legend: […]
# Common Lambsquarters = system: Common Lambsquarters
# Source text: as §1, §2, §3
# Large Crabgrass = conditions: Table III, 2 WAT
# Source text: as §1, §2, §3
# Hemp Sesbania = conditions: Table III, 2 WAT
# Source text: as §1, §2, §3
# Morningglory = system: Morningglory
# Source text: as §1, §2, §3
# Pennsylvania Smartweed = system: Pennsylvania Smartweed
# Source text: as §1, §2, §3
# Wild Buckwheat = conditions: Table III, 2 WAT
# Source text: as §1, §2, §3
# Downy Brome = system: Downy Brome
# Source text: as §1, §2, §3
# Panicum Spp = conditions: Table III, 2 WAT
# Source text: as §1, §2, §3
# Sugar Beet = conditions: Table III, 2 WAT
# Source text: as §1, §2, §3
# Barnyardgrass = system: Barnyardgrass
# Source text: as §1, §2, §3
# Johnsongrass = conditions: Table II, 11.2 kg/h, formulated immediately prior to treatment
# Source text: as §1, §2, §3
# Canada Thistle = conditions: Table II, 11.2 kg/h, formulated immediately prior to treatment
# Source text: as §1, §2, §3
# Velvetleaf = system: Velvetleaf
# Source text: as §1, §2, §3
# Rice = conditions: Table III, 2 WAT
# Source text: as §1, §2, §3
# Soybean = conditions: Table III, 2 WAT
# Source text: as §1, §2, §3
# Yellow Nutsedge = conditions: Table II, 11.2 kg/h, formulated immediately prior to treatment
# Source text: as §1, §2, §3
# Cocklebur = system: Cocklebur
# Source text: as §1, §2, §3
# [1] = Table II, 2 WAT, 11.2 kg/h, formulated immediately prior to treatment
# [2] = Table II, 4 WAT, 11.2 kg/h, formulated immediately prior to treatment
smiles,measurement,setting,value
CC(C)OC(=O)CNCP(=O)(O[Si](c1ccccc1)(c1ccccc1)C(C)(C)C)O[Si](c1ccccc1)(c1ccccc1)C(C)(C)C [Ex. 1],Plant Response Index (H),Quackgrass; 2 WAT,0 (0-24% inhibition)
same,Plant Response Index (H),Quackgrass; 4 WAT,1 (25-49% inhibition)
same,Plant Response Index (E),Common Lambsquarters; [1],0 (0-24% inhibition)
same,Plant Response Index (E),Common Lambsquarters; [2],0 (0-24% inhibition)
same,Plant Response Index (E),"Common Lambsquarters; Table III, 2 WAT, 1.1 kg/h",0 (0-24% inhibition)
same,Plant Response Index (E),"Common Lambsquarters; Table III, 2 WAT, 5.6 kg/h",3 (75-99% inhibition)
same,Plant Response Index (T),Large Crabgrass; 1.1 kg/h,2 (50-74% inhibition)
same,Plant Response Index (T),Large Crabgrass; 5.6 kg/h,4 (100% inhibition)
same,Plant Response Index (R),Hemp Sesbania; 1.1 kg/h,0 (0-24% inhibition)
same,Plant Response Index (R),Hemp Sesbania; 5.6 kg/h,2 (50-74% inhibition)
same,Plant Response Index (D),Morningglory; [1],1 (25-49% inhibition)
same,Plant Response Index (D),Morningglory; [2],2 (50-74% inhibition)
same,Plant Response Index (D),"Morningglory; Table III, 2 WAT, 1.1 kg/h",0 (0-24% inhibition)
same,Plant Response Index (D),"Morningglory; Table III, 2 WAT, 5.6 kg/h",2 (50-74% inhibition)
same,Plant Response Index (F),Pennsylvania Smartweed; [1],3 (75-99% inhibition)
same,Plant Response Index (F),Pennsylvania Smartweed; [2],3 (75-99% inhibition)
same,Plant Response Index (F),"Pennsylvania Smartweed; Table III, 2 WAT, 1.1 kg/h",0 (0-24% inhibition)
same,Plant Response Index (F),"Pennsylvania Smartweed; Table III, 2 WAT, 5.6 kg/h",3 (75-99% inhibition)
same,Plant Response Index (Q),Wild Buckwheat; 1.1 kg/h,0 (0-24% inhibition)
same,Plant Response Index (Q),Wild Buckwheat; 5.6 kg/h,3 (75-99% inhibition)
same,Plant Response Index (J),Downy Brome; [1],1 (25-49% inhibition)
same,Plant Response Index (J),Downy Brome; [2],1 (25-49% inhibition)
same,Plant Response Index (J),"Downy Brome; Table III, 2 WAT, 1.1 kg/h",0 (0-24% inhibition)
same,Plant Response Index (J),"Downy Brome; Table III, 2 WAT, 5.6 kg/h",3 (75-99% inhibition)
same,Plant Response Index (S),Panicum Spp; 1.1 kg/h,0 (0-24% inhibition)
same,Plant Response Index (S),Panicum Spp; 5.6 kg/h,3 (75-99% inhibition)
same,Plant Response Index (M),Sugar Beet; 1.1 kg/h,1 (25-49% inhibition)
same,Plant Response Index (M),Sugar Beet; 5.6 kg/h,3 (75-99% inhibition)
same,Plant Response Index (K),Barnyardgrass; [1],2 (50-74% inhibition)
same,Plant Response Index (K),Barnyardgrass; [2],3 (75-99% inhibition)
same,Plant Response Index (K),"Barnyardgrass; Table III, 2 WAT, 1.1 kg/h",1 (25-49% inhibition)
same,Plant Response Index (K),"Barnyardgrass; Table III, 2 WAT, 5.6 kg/h",4 (100% inhibition)
same,Plant Response Index (I),Johnsongrass; 2 WAT,0 (0-24% inhibition)
same,Plant Response Index (I),Johnsongrass; 4 WAT,2 (50-74% inhibition)
same,Plant Response Index (A),Canada Thistle; 2 WAT,0 (0-24% inhibition)
same,Plant Response Index (A),Canada Thistle; 4 WAT,1 (25-49% inhibition)
same,Plant Response Index (C),Velvetleaf; [1],0 (0-24% inhibition)
same,Plant Response Index (C),Velvetleaf; [2],1 (25-49% inhibition)
same,Plant Response Index (C),"Velvetleaf; Table III, 2 WAT, 1.1 kg/h",0 (0-24% inhibition)
same,Plant Response Index (C),"Velvetleaf; Table III, 2 WAT, 5.6 kg/h",2 (50-74% inhibition)
same,Plant Response Index (O),Rice; 1.1 kg/h,0 (0-24% inhibition)
same,Plant Response Index (O),Rice; 5.6 kg/h,3 (75-99% inhibition)
same,Plant Response Index (L),Soybean; 1.1 kg/h,0 (0-24% inhibition)
same,Plant Response Index (L),Soybean; 5.6 kg/h,1 (25-49% inhibition)
same,Plant Response Index (G),Yellow Nutsedge; 2 WAT,1 (25-49% inhibition)
same,Plant Response Index (G),Yellow Nutsedge; 4 WAT,2 (50-74% inhibition)
same,Plant Response Index (B),Cocklebur; [1],1 (25-49% inhibition)
same,Plant Response Index (B),Cocklebur; [2],1 (25-49% inhibition)
same,Plant Response Index (B),"Cocklebur; Table III, 2 WAT, 1.1 kg/h",0 (0-24% inhibition)
same,Plant Response Index (B),"Cocklebur; Table III, 2 WAT, 5.6 kg/h",2 (50-74% inhibition)
